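Step 1: Grow cells in 96-well plates. Step 2: Expose to compound for 48 hours at 5 concentrations. Step 3: Interpolate endpoints linearly; if unreached, use highest concentration. GI50 = concentration required for 50% inhibition of growth.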 Activity calls are given as the source filed them. Cut-off read from the data, not from the text of the source: active = GI50 up to about 1.1 µM and inactive = higher.
Legend:
Assay in all cases: NCI-60 cell line screen, 48 h
COLO 205 = system: COLO 205
SK-MEL-2 = system: SK-MEL-2
KM12 = system: KM12
HCT-116 = system: HCT-116
SF-539 = system: SF-539
NCI-H522 = system: NCI-H522
UACC-257 = system: UACC-257
K562 = system: K562
SW-620 = system: SW-620
OVCAR-4 = system: OVCAR-4
SF-295 = system: SF-295
SNB-19 = system: SNB-19
U-251 = system: U-251
LOX IMVI = system: LOX IMVI
OVCAR-5 = system: OVCAR-5
SK-MEL-5 = system: SK-MEL-5
OVCAR-3 = system: OVCAR-3
786-0 = system: 786-0
MDA-N = system: MDA-N
SNB-75 = system: SNB-75

## COCC([C@@H](O)C(O)C(=O)NCC[C@@H](C)c1nc(/C=C/CC2OC3(C[C@H](O)C2C)OC(C(C[C@H](O)C(C)[C@H](O)C(C)/C=C(C)/C(C)=C/C=C/C(C)=C/C#N)OC)[C@@H](OP(=O)(O)O)C3(C)C)co1)N(C)C (stereo not given in full)
COLO 205
  GI50: 0.000171 µM (active)
SK-MEL-2
  GI50: 0.000188 µM (active)
KM12
  GI50: 0.000184 µM (active)
HCT-116
  GI50: 0.000177 µM (active)
SF-539
  GI50: 0.000189 µM (active)
NCI-H522
  GI50: 0.000167 µM (active)
UACC-257
  GI50: 0.00105 µM (active)
K562
  GI50: 0.000296 µM (active)
SW-620
  GI50: 0.000182 µM (active)
OVCAR-4
  GI50: 0.00137 µM (active)
SF-295
  GI50: 0.000184 µM (active)
SNB-19
  GI50: 0.000195 µM (active)
U-251
  GI50: 0.000191 µM (active)
LOX IMVI
  GI50: 0.000245 µM (active)
OVCAR-5
  GI50: 0.000188 µM (active)
SK-MEL-5
  GI50: 0.000159 µM (active)
OVCAR-3
  GI50: 0.000186 µM (active)
786-0
  GI50: 0.000176 µM (active)
MDA-N
  GI50: 0.000191 µM (active)
SNB-75
  GI50: 0.000182 µM (active)

## N/C(=N\N=C\c1c[nH]c2ccccc12)Nc1ccccc1
COLO 205
  GI50: 0.188 µM (active)
SK-MEL-2
  GI50: 0.345 µM (active)
KM12
  GI50: 0.153 µM (active)
HCT-116
  GI50: 0.214 µM (active)
SF-539
  GI50: 0.332 µM (active)
NCI-H522
  GI50: 0.0596 µM (active)
UACC-257
  GI50: 0.304 µM (active)
K562
  GI50: 0.278 µM (active)
SW-620
  GI50: 0.122 µM (active)
OVCAR-4
  GI50: 1.58 µM (inactive)
SF-295
  GI50: 0.134 µM (active)
SNB-19
  GI50: 0.54 µM (active)
U-251
  GI50: 0.315 µM (active)
LOX IMVI
  GI50: 0.36 µM (active)
OVCAR-5
  GI50: 3.13 µM (inactive)
SK-MEL-5
  GI50: 0.176 µM (active)
OVCAR-3
  GI50: 0.134 µM (active)
786-0
  GI50: 0.318 µM (active)
MDA-N
  GI50: 0.0219 µM (active)
SNB-75
  GI50: 0.378 µM (active)

## O=C(O)c1ccccc1/C=N/N=C1NCCCCN1
COLO 205
  GI50: > 100 µM (inactive)
SK-MEL-2
  GI50: > 100 µM (inactive)
KM12
  GI50: > 100 µM (inactive)
HCT-116
  GI50: > 100 µM (inactive)
SF-539
  GI50: > 100 µM (inactive)
NCI-H522
  GI50: 90.8 µM (inactive)
UACC-257
  GI50: > 100 µM (inactive)
K562
  GI50: > 100 µM (inactive)
SW-620
  GI50: > 100 µM (inactive)
OVCAR-4
  GI50: > 100 µM (inactive)
SF-295
  GI50: > 100 µM (inactive)
SNB-19
  GI50: > 100 µM (inactive)
U-251
  GI50: > 100 µM (inactive)
LOX IMVI
  GI50: > 100 µM (inactive)
OVCAR-5
  GI50: > 100 µM (inactive)
SK-MEL-5
  GI50: > 100 µM (inactive)
OVCAR-3
  GI50: > 100 µM (inactive)
786-0
  GI50: > 100 µM (inactive)
MDA-N
  GI50: > 100 µM (inactive)
SNB-75
  GI50: > 100 µM (inactive)

## CCOC(=O)c1ccc(Nc2c3c(nc4ccccc24)CCCC3)cc1
COLO 205
  GI50: > 100 µM (inactive)
SK-MEL-2
  GI50: > 86.9 µM (inactive)
KM12
  GI50: 3.54 µM (inactive)
HCT-116
  GI50: > 34.3 µM (inactive)
SF-539
  GI50: 48.9 µM (inactive)
NCI-H522
  GI50: 3.62 µM (inactive)
UACC-257
  GI50: > 86.1 µM (inactive)
K562
  GI50: 3.74 µM (inactive)
SW-620
  GI50: 4.2 µM (inactive)
OVCAR-4
  GI50: 46.7 µM (inactive)
SF-295
  GI50: 17.1 µM (inactive)
SNB-19
  GI50: 41 µM (inactive)
U-251
  GI50: 22.9 µM (inactive)
LOX IMVI
  GI50: > 21.2 µM (inactive)
OVCAR-5
  GI50: > 60 µM (inactive)
SK-MEL-5
  GI50: > 42.5 µM (inactive)
OVCAR-3
  GI50: > 100 µM (inactive)
786-0
  GI50: 29.2 µM (inactive)
MDA-N
  GI50: 1.76 µM (inactive)
SNB-75
  GI50: 6.73 µM (inactive)

## Cc1cc(Nc2ccc(S(=O)(=O)O)cc2)c2ccccc2n1
COLO 205
  GI50: > 100 µM (inactive)
SK-MEL-2
  GI50: > 100 µM (inactive)
KM12
  GI50: > 100 µM (inactive)
HCT-116
  GI50: > 100 µM (inactive)
SF-539
  GI50: > 100 µM (inactive)
NCI-H522
  GI50: > 100 µM (inactive)
UACC-257
  GI50: > 100 µM (inactive)
K562
  GI50: > 100 µM (inactive)
SW-620
  GI50: > 100 µM (inactive)
OVCAR-4
  GI50: > 100 µM (inactive)
SF-295
  GI50: > 100 µM (inactive)
SNB-19
  GI50: > 100 µM (inactive)
U-251
  GI50: > 100 µM (inactive)
LOX IMVI
  GI50: > 100 µM (inactive)
OVCAR-5
  GI50: > 100 µM (inactive)
SK-MEL-5
  GI50: > 100 µM (inactive)
OVCAR-3
  GI50: > 100 µM (inactive)
786-0
  GI50: > 100 µM (inactive)
MDA-N
  GI50: > 100 µM (inactive)
SNB-75
  GI50: > 100 µM (inactive)

## COc1ccccc1/C=C/c1cnccn1
COLO 205
  GI50: > 10 µM (inactive)
SK-MEL-2
  GI50: > 10 µM (inactive)
KM12
  GI50: > 10 µM (inactive)
HCT-116
  GI50: > 10 µM (inactive)
SF-539
  GI50: > 10 µM (inactive)
NCI-H522
  GI50: > 10 µM (inactive)
UACC-257
  GI50: > 10 µM (inactive)
K562
  GI50: > 10 µM (inactive)
SW-620
  GI50: > 10 µM (inactive)
OVCAR-4
  GI50: > 10 µM (inactive)
SF-295
  GI50: > 10 µM (inactive)
SNB-19
  GI50: > 10 µM (inactive)
U-251
  GI50: > 10 µM (inactive)
LOX IMVI
  GI50: > 10 µM (inactive)
OVCAR-5
  GI50: > 10 µM (inactive)
SK-MEL-5
  GI50: > 10 µM (inactive)
OVCAR-3
  GI50: > 10 µM (inactive)
786-0
  GI50: > 10 µM (inactive)
MDA-N
  GI50: > 10 µM (inactive)
SNB-75
  GI50: > 10 µM (inactive)

## C[C@]12Cc3cnc(-c4ccccc4)nc3C[C@@H]1CC[C@@H]1[C@@H]2CC[C@@]2(C)[C@H]1CC[C@]2(C)O
COLO 205
  GI50: 11.7 µM (inactive)
SK-MEL-2
  GI50: 21 µM (inactive)
KM12
  GI50: 13.9 µM (inactive)
HCT-116
  GI50: 17.4 µM (inactive)
SF-539
  GI50: 1.33 µM (inactive)
NCI-H522
  GI50: 10.7 µM (inactive)
UACC-257
  GI50: 20.2 µM (inactive)
K562
  GI50: 2.96 µM (inactive)
SW-620
  GI50: 21.2 µM (inactive)
OVCAR-4
  GI50: 14.4 µM (inactive)
SF-295
  GI50: 14.8 µM (inactive)
SNB-19
  GI50: 18.5 µM (inactive)
U-251
  GI50: 16 µM (inactive)
LOX IMVI
  GI50: 4.6 µM (inactive)
OVCAR-5
  GI50: 14.3 µM (inactive)
SK-MEL-5
  GI50: 17.7 µM (inactive)
OVCAR-3
  GI50: 23.5 µM (inactive)
786-0
  GI50: 10.2 µM (inactive)
MDA-N
  GI50: 16.4 µM (inactive)
SNB-75
  GI50: 6.12 µM (inactive)
